Experimental data reported in patent US20250049970A1, “DLL3 TARGETING PEPTIDES AND CONSTRUCTS THEREOF” (MARIANA ONCOLOGY INC., priority 2023, published 2025).
Where a SMILES comes first, the peptide text is derived from it. Bridges are numbered along the chain shown (N, C = ends). [ ]: non-standard residue; d: D form. The star is where a group is joined. DOTA = O=C(O)CN1CCN(CC(=O)O)CCN(CC(=O)*)CCN(CC(=O)O)CC1; X1 = O=CCN1CCN(CC(=O)O)CCN(CC(=O)*)CCN(CC(=O)O)CC1; 2Nal = N[C@@H](Cc1ccc2ccccc2c1)C(=O)O; Gly(4-THP) = N[C@H](C(=O)O)C1CCOCC1; aIle = CC[C@@H](C)[C@H](N)C(=O)O; tBuAla = CC(C)(C)C[C@H](N)C(=O)O; Cha = N[C@@H](CC1CCCCC1)C(=O)O; Chg = N[C@H](C(=O)O)C1CCCCC1; NMeNle = CCCC[C@H](NC)C(=O)O

Experiments:
CT26.DLL3 cells [1] = test: Cell binding (total uptake) of [177Lu]Lu-labeled peptide, CT26.DLL3 cells; assay type: cell-based; conditions: 1 h, 37° C.
Method: (§1) [^177Lu]LuCl3 was received from venders in HCl solution. For every mCi of [^177Lu]LuCl3 added to the reaction vial (1.5 mL Eppendorf vial), ammonium acetate buffer (0.2 M, pH 4.9, 100 μL, containing 1% w/v ascorbic acid and 6% v/v ethanol) and peptide conjugate (1 nmol; also referred to herein as “chelator-peptides”) was added. The pH of the solution was determined to be approximately 5 by using pH strips. The reaction vial was incubated at 80° C., 700 RPM for 17-20 minutes. A sample from the reaction was analyzed by RP-HPLC using an Agilent Infinity II 1260 HPLC to determine reaction completion and radiochemical purity of [^177Lu]Lu-chelator-peptides. HPLC conditions: Waters XBridge BEH C18 Column, 130A, 3.5 μm, 4.6 mm×250 mm; mobile phase: Solvent A=water (with 0.1% formic acid), solvent B=acetonitrile (with 0.1% formic acid). Gradients: 25-45% B in 10 minutes, 45-65% B in 12 minutes, 65-90% in 6 minutes at a flow rate of 0.5 mL/minutes Required amounts of the product was formulated in 1% PBSA for cell studies.
(§2) The study was conducted using SHP-77, CT26.WT, CT26.DLL3, and HEK293.DLL3 cells (Table 9)
(§3) Adherent cell studies: The cells were cultured in appropriate culture media (20 mL) in tissue culture treated T150 flasks at 37° C. and 5% C02. Adherent cells were detached (60-70% confluent) using 5 mL Versene at 37° C. for 3 minutes. After confirming the viability using countess and count of detached cells using Trypan blue, the cells were centrifuged at 4° C. for 5 minutes (1,000 rpm). The cell pellet obtained was washed once with PBS and resuspended in 1% PBSA to obtain the desired cell concentration (5-25 million cells/mL).
(§4) Cell numbers used for the assay were in the range of 5 million cells/condition-25 million cells/condition.
(§5) Total uptake: Cells were incubated with 300 μL (0.8 μCi) of the incubation buffer (containing radiolabeled peptide [^177Lu]Lu-test peptide) for 1 hour at 37° C. (Table 10). Post incubation, the cells were pelleted and washed 2 times using cold PBS+1% BSA. The supernatant and washes were combined and counted together as “unbound fraction” in a gamma counter. The cells were then resuspended in 300 μL of 1% PBS+1% BSA and counted in the gamma counter as “bound fraction”.
(§6) In these Tables, “A” represents % s ≤25; “B” represents 25 <% ≤50; “C” represents % >50.

SHP-77 cells [2] = test: Cell binding (total uptake) of [177Lu]Lu-labeled peptide, SHP-77 cells; assay type: cell-based; conditions: 1 h, 37° C.
Method: as §1, §2, §3
as §3, with “Suspension” for “Adherent”, “CO2.” for “C02. Adherent cells were detached (60-70% confluent) using 5 mL Versene at 37° C. for 3 minutes.”, “viability” for “viability using countess”
as §4, §5, §6

CT26.DLL3 cells [3] = test: Internalization of [177Lu]Lu-labeled peptide, CT26.DLL3 cells; assay type: cell-based; conditions: 1 h, 37° C.
Method: as §1, §2, §3, §4
(§7) Internalization: The resuspended cells in 300 μL of 1% PBSA and counted in the gamma counter as “bound fraction” were collected in 1.5 mL Eppendorf tube and pelleted. The pelleted cells were incubated with 300 μL of 50 mM Glycine pH=2.5 for 3 minutes and then pelleted discarding the supernatant. This process was repeated one more time. The pelleted cells were washed with 300 μL of cold 1% PBSA and then resuspended in 300 μl 0.3M NaOH. This was counted in the gamma counter as “internalized fraction”.
as §6

SHP-77 cells [4] = test: Internalization of [177Lu]Lu-labeled peptide, SHP-77 cells; assay type: cell-based; conditions: 1 h, 37° C.
Method: as §1, §2, §3
as §3, with “Suspension” for “Adherent”, “CO2.” for “C02. Adherent cells were detached (60-70% confluent) using 5 mL Versene at 37° C. for 3 minutes.”, “viability” for “viability using countess”
as §4, §7, §6

[5] = test system: nude mice bearing SHP-77 tumors; test: Ex vivo biodistribution of radiolabeled peptides (% IA/g) in nude mice bearing SHP-77 tumors; conditions: [177Lu]Lu labelling, 24 hours post-injection, intravenous
Outline: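 [177Lu]Lu-peptides were given as an IV tail-vein bolus once tumors reached 200-400 mm^3. Injected activity was set per mouse from syringe dose-calibrator readings. At set time points, tissues were weighed and gamma-counted, and counts were decay-corrected to injection and expressed as % IA/g.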

DLL3 = target: T1, DLL3 (Homo sapiens, UniProt Q9NYJ7); test: SPR KD, biotinylated human DLL3 on streptavidin chip (Table 8); parameters: biotin (biotinylated); conditions: biotinylated human DLL3 on streptavidin sensor chip, 25° C., 1:1 binding model; read-out: SPR KD
T1 sequence (Q9NYJ7 27-618): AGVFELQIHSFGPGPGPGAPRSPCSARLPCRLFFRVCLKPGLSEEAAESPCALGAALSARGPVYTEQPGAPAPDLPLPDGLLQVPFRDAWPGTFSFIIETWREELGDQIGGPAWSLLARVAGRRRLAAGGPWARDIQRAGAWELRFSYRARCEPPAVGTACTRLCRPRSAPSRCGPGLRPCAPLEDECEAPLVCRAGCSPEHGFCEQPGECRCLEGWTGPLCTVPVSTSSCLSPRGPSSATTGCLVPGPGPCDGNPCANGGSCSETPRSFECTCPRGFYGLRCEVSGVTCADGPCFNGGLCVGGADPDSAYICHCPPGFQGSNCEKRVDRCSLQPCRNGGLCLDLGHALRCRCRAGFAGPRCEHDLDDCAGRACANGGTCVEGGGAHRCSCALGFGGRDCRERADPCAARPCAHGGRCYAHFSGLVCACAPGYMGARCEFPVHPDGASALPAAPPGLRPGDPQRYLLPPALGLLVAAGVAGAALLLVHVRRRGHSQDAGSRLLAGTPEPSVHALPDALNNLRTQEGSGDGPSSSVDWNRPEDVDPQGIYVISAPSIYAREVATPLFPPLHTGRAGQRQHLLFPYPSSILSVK
Source text: Biotinylated target ligand human DLL3 was immobilized on a streptavidin sensor chip. A reference surface was set up for nonspecific binding and refractive index changes. […] Sensorgram curves were fitted with 1:1 binding model, and affinity and kinetic parameters were obtained using Biacore Insight evaluation 4.0. software.

Compound | % Binding (CT26.DLL3 cells [1]) | % Binding (SHP-77 cells [2]) | % Internalization (out of bound fraction) (CT26.DLL3 cells [3]) | % Internalization (out of bound fraction) (SHP-77 cells [4]) | kidney uptake (% IA/g) [5] | tumor uptake (% IA/g) [5] | Kd (DLL3)
CC(=O)N[C@@H](Cc1c[nH]c2ccccc12)C(=O)N[C@H](C(=O)N[C@@H](CC(C)(C)C)C(=O)N[C@H]1CSSC[C@@H](C(=O)N[C@@H](Cc2c[nH]c3ccccc23)C(=O)N2CCC[C@H]2C(N)=O)NC(=O)[C@H](CC(=O)O)NC(=O)[C@H](CCCCNC(=O)CN2CCN(CC(=O)O)CCN(CC=O)CCN(CC(=O)O)CC2)NC(=O)[C@H](Cc2ccc3ccccc3c2)NC(=O)[C@H](CC(N)=O)NC(=O)[C@H](CC(N)=O)NC1=O)[C@@H](C)O [compound 316, Ac-W-T-(t-Bu-Ala)-C(3)-N-N-(2Nal)-Lys(DOTA)-D-C(3)-W-P-CONH2] (Ac-WT[tBuAla]CNN[2Nal]K(X1)DCWP-NH2; disulfide 4-10) | A (% s ≤25) | B (25 <% ≤50) | B (25 <% ≤50) | C (% >50) | D (“D” represents % IA/g > 10 in kidney) | A (“A” represents 0 < % IA/g ≤ 5 in tumor) | < 1 nM
CC(=O)N[C@@H](Cc1c[nH]c2ccccc12)C(=O)N[C@H](C(=O)N[C@H](C(=O)N[C@H]1CSSC[C@@H](C(=O)N[C@@H](Cc2c[nH]c3ccccc23)C(=O)N2CCC[C@H]2C(N)=O)NC(=O)[C@H](CC(=O)O)NC(=O)[C@H](CCCCNC(=O)CN2CCN(CC(=O)O)CCN(CC(=O)O)CCN(CC(=O)O)CC2)NC(=O)[C@H](Cc2ccc3ccccc3c2)NC(=O)[C@H](CC(N)=O)NC(=O)[C@H](CC(N)=O)NC1=O)C1CCOCC1)[C@@H](C)O [compound 317, Ac-W-T-(THPG)-C(3)-N-N-(2Nal)-Lys(DOTA)-D-C(3)-W-P-CONH2] (Ac-WT[Gly(4-THP)]CNN[2Nal]K(DOTA)DCWP-NH2; disulfide 4-10) | A (% s ≤25) | A (% s ≤25) | C (% >50) | B (25 <% ≤50) | D (“D” represents % IA/g > 10 in kidney) | A (“A” represents 0 < % IA/g ≤ 5 in tumor) | < 1 nM
CC(=O)N[C@@H](Cc1c[nH]c2ccccc12)C(=O)N[C@H](C(=O)N[C@H](C(=O)N[C@H]1CSSC[C@@H](C(=O)N[C@@H](Cc2c[nH]c3ccccc23)C(=O)N2CCC[C@H]2C(N)=O)NC(=O)[C@H](CC(=O)O)NC(=O)[C@H](CCCCNC(=O)CN2CCN(CC(=O)O)CCN(CC(=O)O)CCN(CC(=O)O)CC2)NC(=O)[C@H](Cc2ccc3ccccc3c2)NC(=O)[C@H](CC(N)=O)NC(=O)[C@H](CC(N)=O)NC1=O)C1CCCCC1)[C@@H](C)O [compound 318, Ac-W-T-(Chg)-C(3)-N-N-(2Nal)-Lys(DOTA)-D-C(3)-W-P-CONH2] (Ac-WT[Chg]CNN[2Nal]K(DOTA)DCWP-NH2; disulfide 4-10) | A (% s ≤25) | B (25 <% ≤50) | C (% >50) | C (% >50) | D (“D” represents % IA/g > 10 in kidney) | A (“A” represents 0 < % IA/g ≤ 5 in tumor) | < 1 nM
CCCC[C@@H](C(=O)N[C@H]1CSSC[C@@H](C(=O)N[C@@H](Cc2c[nH]c3ccccc23)C(=O)N2CCC[C@H]2C(N)=O)NC(=O)[C@H](CC(=O)O)NC(=O)[C@H](CCCCNC(=O)CN2CCN(CC(=O)O)CCN(CC(=O)O)CCN(CC(=O)O)CC2)NC(=O)[C@H](Cc2ccc3ccccc3c2)NC(=O)[C@H](CC(N)=O)NC(=O)[C@H](CC(N)=O)NC1=O)N(C)C(=O)[C@@H](NC(=O)[C@H](Cc1c[nH]c2ccccc12)NC(C)=O)[C@@H](C)O [compound 320, Ac-W-T-(NMe-Nle)-C(3)-N-N-(2Nal)-Lys(DOTA)-D-C(3)-W-P-CONH2] (Ac-WT[NMeNle]CNN[2Nal]K(DOTA)DCWP-NH2; disulfide 4-10) | A (% s ≤25) | A (% s ≤25) | B (25 <% ≤50) | B (25 <% ≤50) | D (“D” represents % IA/g > 10 in kidney) | A (“A” represents 0 < % IA/g ≤ 5 in tumor) | < 1 nM
CC[C@@H](C)[C@H](NC(=O)[C@@H](NC(=O)[C@H](Cc1c[nH]c2ccccc12)NC(C)=O)[C@@H](C)O)C(=O)N[C@H]1CSSC[C@@H](C(=O)N[C@@H](Cc2c[nH]c3ccccc23)C(=O)N2CCC[C@H]2C(N)=O)NC(=O)[C@H](CC(=O)O)NC(=O)[C@H](CCCCNC(=O)CN2CCN(CC(=O)O)CCN(CC(=O)O)CCN(CC(=O)O)CC2)NC(=O)[C@H](Cc2ccc3ccccc3c2)NC(=O)[C@H](CC(N)=O)NC(=O)[C@H](CC(N)=O)NC1=O [compound 322, Ac-W-T-(Allo-Ile)-C(3)-N-N-(2Nal)-Lys(DOTA)-D-C(3)-W-P-CONH2] (Ac-WT[aIle]CNN[2Nal]K(DOTA)DCWP-NH2; disulfide 4-10) | A (% s ≤25) | A (% s ≤25) | C (% >50) | B (25 <% ≤50) | D (“D” represents % IA/g > 10 in kidney) | A (“A” represents 0 < % IA/g ≤ 5 in tumor) | < 1 nM
CC(=O)N[C@@H](Cc1c[nH]c2ccccc12)C(=O)N[C@H](C(=O)N[C@@H](CC1CCCCC1)C(=O)N[C@H]1CSSC[C@@H](C(=O)N[C@@H](Cc2c[nH]c3ccccc23)C(=O)N2CCC[C@H]2C(N)=O)NC(=O)[C@H](CC(=O)O)NC(=O)[C@H](CCCCNC(=O)CN2CCN(CC(=O)O)CCN(CC(=O)O)CCN(CC(=O)O)CC2)NC(=O)[C@H](Cc2ccc3ccccc3c2)NC(=O)[C@H](CC(N)=O)NC(=O)[C@H](CC(N)=O)NC1=O)[C@@H](C)O [compound 323, Ac-W-T-(CHA)-C(3)-N-N-(2Nal)-Lys(DOTA)-D-C(3)-W-P-CONH2] (Ac-WT[Cha]CNN[2Nal]K(DOTA)DCWP-NH2; disulfide 4-10) | A (% s ≤25) | A (% s ≤25) | C (% >50) | B (25 <% ≤50) | D (“D” represents % IA/g > 10 in kidney) | A (“A” represents 0 < % IA/g ≤ 5 in tumor) | < 1 nM
